Test results published in US7183075B2, “Purified and isolated potassium-chloride cotransporter nucleic acids and polypeptides and therapeutic and screening methods using same” (Vanderbilt University, priority 2000, dated 2007).
Like-named read-outs stand apart in the source and are kept apart here.

Target: T1, rabKCC1 (Oryctolagus cuniculus, UniProt Q28677)
T1 construct: a full-length rabbit KCC1 cDNA was subcloned into pGEMHE; expressed in transfected cells; host or cells: Xenopus laevis oocytes injected with cRNA
T1 sequence (Q28677 1-1085): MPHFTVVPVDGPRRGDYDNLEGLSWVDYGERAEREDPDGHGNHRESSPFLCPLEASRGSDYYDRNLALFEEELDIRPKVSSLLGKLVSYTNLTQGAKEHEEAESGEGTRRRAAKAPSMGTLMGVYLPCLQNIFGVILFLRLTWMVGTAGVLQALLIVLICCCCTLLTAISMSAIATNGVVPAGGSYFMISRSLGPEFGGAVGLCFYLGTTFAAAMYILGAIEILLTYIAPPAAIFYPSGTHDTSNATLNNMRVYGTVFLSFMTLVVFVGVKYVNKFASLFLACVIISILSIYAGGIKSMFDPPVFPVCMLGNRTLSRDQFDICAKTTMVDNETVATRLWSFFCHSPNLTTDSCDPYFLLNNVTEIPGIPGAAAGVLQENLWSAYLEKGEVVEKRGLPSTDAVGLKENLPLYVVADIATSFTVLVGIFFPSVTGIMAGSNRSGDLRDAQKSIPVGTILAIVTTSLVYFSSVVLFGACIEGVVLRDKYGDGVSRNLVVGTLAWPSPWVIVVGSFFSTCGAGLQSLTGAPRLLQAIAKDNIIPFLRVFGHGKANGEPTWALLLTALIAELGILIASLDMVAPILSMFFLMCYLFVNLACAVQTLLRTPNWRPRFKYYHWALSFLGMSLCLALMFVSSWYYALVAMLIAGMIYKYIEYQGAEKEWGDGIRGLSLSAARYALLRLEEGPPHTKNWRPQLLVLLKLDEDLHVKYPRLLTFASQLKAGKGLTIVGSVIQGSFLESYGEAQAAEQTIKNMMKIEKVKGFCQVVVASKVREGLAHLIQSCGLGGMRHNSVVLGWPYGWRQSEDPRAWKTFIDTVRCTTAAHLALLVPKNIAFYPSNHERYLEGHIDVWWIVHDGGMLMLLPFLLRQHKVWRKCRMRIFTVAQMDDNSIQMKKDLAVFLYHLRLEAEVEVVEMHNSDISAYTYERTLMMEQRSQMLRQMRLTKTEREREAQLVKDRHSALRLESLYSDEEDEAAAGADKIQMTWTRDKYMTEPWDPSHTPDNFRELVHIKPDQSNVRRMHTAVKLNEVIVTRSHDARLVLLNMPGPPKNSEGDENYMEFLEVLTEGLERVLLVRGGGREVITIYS
Assay: 86Rb+ uptake (K+-Cl- cotransport) in Xenopus oocytes injected with rabKCC1 cRNA
Assay type: cell-based, rabbit
Settings: for KCC1 function (86Rb+ uptake, % of control): 2 mM diuretic; for effect on activation of KCC1 by cell swelling: calyculin A 100 nM, okadaic acid 1 nM, cypermethrin 100 pM; for KCC1 function remaining: 100 μM DIDS
Protocol: On the next day, defolliculated stage V–VI oocytes were injected with 50 nl of water or a solution containing cRNA at a concentration of 0.25–0.5 μg/μl (25 ng/oocyte). […] The incubation medium was changed every 24 hours.
For functional comparison with mKCC4, a full-length rabbit KCC1 cDNA was subcloned into pGEMHE. […] To prepare a template for cRNA, the rabbit KCC1 and […] cDNAs were linearized at the 3′-end using NheI, and cRNA was transcribed in vitro using the T7 RNA polymerase and the mMESSAGE mMACHINE kit (Ambion, Inc. of Austin, Tex.). Transcription product integrity was confirmed on agarose gels, and concentration was determined by absorbance reading at 260 nm (DU 640 available from Beckman of Fullerton, Calif.).
K^+—Cl^− cotransport was assessed by measuring tracer ^86Rb^+ uptake (NEN® Life Science Products of Boston, Mass.) in experimental groups of at least 15 oocytes. […] Isotonic conditions were generated by supplementing the same solutions with 3.5 g/100 ml sucrose to reach isosmolar conditions for oocytes (˜210 mOsm/kg). Ouabain was added to prevent ^86Rb^+ uptake via the Na^+—K^+-ATPase.
All uptake assays were performed at 32° C. At the end of the uptake period, oocytes were washed five times in ice-cold uptake solution without isotope to remove extracellular fluid tracer. Oocytes were dissolved in 10% SDS, and tracer activity was determined for each oocyte by β-scintillation counting.
To determine the ion transport kinetics of KCC4 and KCC1, ^86Rb^+ uptake experiments were performed in variable concentrations of K^+ and Cl^−. The sensitivity for several inhibitors was assessed by exposing groups of oocytes to the inhibitors at concentrations varying from […] to 2 mM. For these experiments, the desired concentration of the inhibitor was present during both the incubation and uptake periods, except when noted.

[1] = 2 mM extracellular K+, hypotonic
[2] = 50 mM extracellular K+, hypotonic
[3] = KCC1, counterion fixed at 50 mM, hypotonic
[4] = KCC1, counterion fixed at 50 mM, hypotonic, read-out: apparent Km for extracellular ion

Compound: CCN1C(=O)C=CC1=O [NEM, N-ethylmaleimide]
- reduction of KCC1-induced 86Rb+ uptake (1 mM NEM, hypotonic): 55%
- fold activation of KCC1 (1 mM NEM, isotonic): 2.6 fold
- 86Rb+ uptake in NEM-treated group (KCC1, 1 mM NEM, isotonic): 319±76 pmol×oocyte^−1×hour^−1

Compound: CCCCNc1cc(C(=O)O)cc(S(N)(=O)=O)c1Oc1ccccc1 [bumetanide]
- KCC1 function (86Rb+ uptake, % of control) [1]: 51±12%
- KCC1 function (86Rb+ uptake, % of control) [2]: 19±7%
- IC50 (KCC1, 10 mM extracellular K+, read-out: apparent half-maximal inhibition (K=0.5) of Cl−-dependent 86Rb+ uptake): ~180 µM

Compound: C=C1[C@@H](O)[C@@H]2O[C@]3(CC[C@H](/C=C/[C@@H](C)[C@@H]4CC(C)=C[C@@]5(O[C@H](C[C@@](C)(O)C(=O)O)CC[C@H]5O)O4)O3)CC[C@H]2O[C@@H]1[C@@H](O)C[C@H](C)[C@H]1O[C@@]2(CCCCO2)CC[C@H]1C [okadaic acid]
- effect on activation of KCC1 by cell swelling (hypotonic): neither okadaic acid, nor cypermethrin prevented this activation

Compound: NS(=O)(=O)c1cc2c(cc1Cl)NC(C(Cl)Cl)NS2(=O)=O (centres unmarked) [trichlormethiazide]
- KCC1 function (86Rb+ uptake, % of control) [1]: 64±4%
- KCC1 function (86Rb+ uptake, % of control) [2]: 74±8%

Compound: NS(=O)(=O)c1cc(C(=O)O)c(NCc2ccco2)cc1Cl [furosemide]
- KCC1 function (86Rb+ uptake, % of control) [1]: 9±2%
- KCC1 function (86Rb+ uptake, % of control) [2]: 18±8%

Compound: [K+] [Potassium]
- Hill coefficient (KCC1): 1.04±0.13
- apparent Vmax for extracellular ion [3]: 39,540±2,199 pmol×oocyte^−1×hour^−1
- Km [4]: 25.5 ± 3.2 mM
- Km (KCC1, read-out: Potassium Km): 25.5 mM

Compound: CC1(C)C(C=C(Cl)Cl)C1C(=O)OC(C#N)c1cccc(Oc2ccccc2)c1 (centres unmarked) [cypermethrin]
- effect on activation of KCC1 by cell swelling (hypotonic): neither okadaic acid, nor cypermethrin prevented this activation

Compound: O=S(=O)(O)c1cc(N=C=S)ccc1C=Cc1ccc(N=C=S)cc1S(=O)(=O)O [DIDS]
- KCC1 function remaining [1]: 85±6%
- KCC1 function remaining [2]: 13±2%

Compound: Cl [Chloride]
- Hill coefficient (KCC1): 1.3±0.5
- apparent Vmax for extracellular ion [3]: 14,930±2,822 pmol×oocyte^−1×hour^−1
- Km [4]: 17.2 ± 8.3 mM
- Km (KCC1, read-out: Chloride Km): 17.2 mM

Compound: [Ba+2].[Cl-].[Cl-] [BaCl2]
- KCC1 function, % of control (10 mM BaCl2 in hypotonic uptake medium): 79±4.2%

Compound: COC[C@@H]([C@H](O)[C@H](O)C(=O)NCC[C@H](C)c1nc(/C=C/C[C@@H]2O[C@]3(C[C@@H](O)[C@@H]2C)O[C@H]([C@H](C[C@H](O)[C@H](C)[C@H](O)[C@H](C)/C=C(C)/C(C)=C/C=C/C(C)=C\C#N)OC)[C@H](OP(=O)(O)O)C3(C)C)co1)N(C)C [calyculin A]
- effect on activation of KCC1 by cell swelling (hypotonic): completely prevents the activation

Compound: CCCCC1(C2CCCC2)Cc2cc(OCC(=O)O)c(Cl)c(Cl)c2C1=O (centres unmarked) [DIOA]
- effect on KCC1-induced 86Rb+ uptake (100 μM DIOA, hypotonic): inhibition

Compound: HgCl2 [Hg—Cl2]
- response of KCC1 to mercury (50 μM HgCl2, hypotonic): resistant
